Measurements: paper PMC10603954, “Bacterial Tyrosinase Inhibition, Hemolytic and Thrombolytic Screening, and In Silico Modeling of Rationally Designed Tosyl Piperazine-Engrafted Dithiocarbamate Derivatives” (Biomedicines, 2023)
Like-named read-outs stand apart in the source and are kept apart here.

Assays:
Tyrosinase = settings: Figure 3; no reference given; read-out: Tyrosinase inhibtors IC50; cited from earlier work
[1] = molecular target: bacterial tyrosinase (Bacillus subtilis NA2); parameters: method as in PMID 36142889; settings: reference standard; read-out: IC50 (µM) Tyrosinase Inhibition; cited from earlier work
Hemolytic activity = format: cell-based, albino mice; settings: albino, mouse, red blood cells (RBC pellet from blood), pH 7.4; 20 µL sample (10 mg/mL) with 180 µL RBC, 37 °C, half an hour
Experimental: A blood sample of 5 mL of volume from albino mice was taken and subjected to centrifugation at 1000 rpm for 5 min. RBC pellets were secluded and splashed 3–4 times using chilled buffer solutions that had pH values of 7.4, such as the phosphate buffer saline (PBS). A solution sample in a volume of 20 µL (10 mg/mL) was taken and added to a 180 µL RBC pellet. […] A sample tube was taken from the incubator and lowered to room temperature in an ice bath for 5 min. The sample was again centrifuged at 13,000 rpm for 5 min. A total of 100 µL of supernatant was collected from each tube and diluted with the ice-cold phosphate buffered saline.

[2] = molecular target: bacterial tyrosinase (Bacillus subtilis NA2); experiment: Tyrosinase inhibition, spectrophotometric L-Dopa assay; format: biochemical; settings: for IC50: bacterial tyrosinase, L-Dopa substrate, PBS pH 6.8; for optical density at varied incubation times: incubation 10, 20 and 30 min (Figure 6)
Experimental: IC50 values were obtained using a spectrophotometer assay. The protocol involved the addition of 2 mL of 1/2 mM L-Dopa in a 67.0 mM PBS (phosphate buffer saline) solution of pH 6.8 to the 800 µL solution of target molecules in DMSO. A total of 0.1 mL of the enzyme solution (tyrosinase) was dissolved in this mixture, and the starting rate of linear increase was measured in the optical density after 10, 20, and 30 min of incubation time, respectively. Thus, optical density increases or decreases with the presence of dopachrome.
The inhibition potential of these derivatives was also studied at varied incubation times.

clot = experiment: Thrombolytic activity (clot lysis); parameters: species or system albino mice; settings: 100 µL sample in DMSO, 37 °C, 3 h
Text: Blood samples were collected from albino mice and relocated to numerous cleaned and weighed-up eppendorf tubes. […] Blood serum was cast-off from these tubes and weighed in the eppendorf tubes to calculate the preliminary weight of the clot (clot weight = weight of the eppendorf with the clot minus the weight of the empty eppendorf). […] In this methodology, ABTS was used as a positive control, while water was used as a negative control. Serum was again removed and weighed in the eppendorf tubes to measure clot lysis.

SMILES | IC50 (Tyrosinase) | IC50 [1] | hemolysis at 0.5 h, 1 mg/mL (Hemolytic activity) | IC50 [2] | optical density at varied incubation times [2] | % Thrombolysis (clot) | melting point
Cc1ccc(NC(=O)CCCN2CCN(C/C=C/c3ccccc3)CC2)c(C)c1 [Compound 2g] | 0.01 µM |  |  |  |  |  | 
O=C1O[C@H]([C@@H](O)CO)C(O)=C1O [Ascorbic Acid] |  | 11.5 ± 1 µM |  |  |  |  | 
Cc1ccc(S(=O)(=O)N2CCN(C(=S)SCC(=O)Nc3ccc(Cl)c(Cl)c3)CC2)cc1 [Compound 4i, 2-((3,4-Dichlorophenyl)amino)-2-oxoethyl 4-tosylpiperazine-1-carbodithioate] |  |  | 12.8 ± 0.35% | 19.2 ± 0.47 µM | linear decrease in optical density | 54.38 ± 0.53% | 
O=C(c1ccccc1)N1CCN(Cc2ccc(F)cc2)CC1 [Compound 2d] | 13.3 µM |  |  |  |  |  | 
COc1ccc(NC(=O)CSC(=S)N2CCN(S(=O)(=O)c3ccc(C)cc3)CC2)cc1 [Compound 4d, 2-((4-Methoxyphenyl)amino)-2-oxoethyl 4-tosylpiperazine-1-carbodithioate] |  |  | 15.6 ± 0.5% | 6.88 ± 0.11 µM |  | 52.4 ± 0.2% | 175 °C
O=c1cc(CO)occ1O [Kojic Acid, Kojic acid, reference compound] |  |  |  | 30.3 ± 0.75 µM |  |  | 
CCn1c(=NN=c2sc3cc(S(=O)(=O)O)ccc3n2CC)sc2cc(S(=O)(=O)O)ccc21 [ABTS, 2,2′-azino-bis(3-ethylbenzothiazoline-6-sulfonic acid), reference compound] |  |  |  |  |  | 80% | 
Cc1ccc(S(=O)(=O)N2CCN(C(=S)SCC(=O)Nc3ccc(Cl)cc3)CC2)cc1 [Compound 4e, 2-((4-Chlorophenyl)amino)-2-oxoethyl 4-tosylpiperazine-1-carbodithioate] |  |  | 7.5 ± 0.4% | 11.1 ± 0.4 µM |  | 67.3 ± 0.2% | 
O=S(=O)(c1ccc(CN2CCN(c3ccccc3)CC2)cc1)N1CCCCC1 [Compound 2f] | 0.06 µM |  |  |  |  |  | 
Cc1ccc(S(=O)(=O)N2CCN(C(=S)SCC(=O)Nc3ccccc3F)CC2)cc1 [Compound 4c, 2-((2-Fluorophenyl)amino)-2-oxoethyl 4-tosylpiperazine-1-carbodithioate] |  |  | 6.6 ± 0.37% | 8.1 ± 0.3 µM |  | 56.76 ± 0.15% | 
COc1ccc(OC)c(NC(=O)CSC(=S)N2CCN(S(=O)(=O)c3ccc(C)cc3)CC2)c1 [Compound 4h, 2-((2,5-Dimethoxyphenyl)amino)-2-oxoethyl 4-tosylpiperazine-1-carbodithioate] |  |  | 11.3 ± 0.22% | 13.25 ± 0.11 µM | linear decrease in optical density | 60.83 ± 0.14% | 190 °C
Cc1ccc(S(=O)(=O)N2CCN(C(=S)SCC(=O)Nc3ccc(C)cc3C)CC2)cc1 [Compound 4g, 2-((2,4-Dimethylphenyl)amino)-2-oxoethyl 4-tosylpiperazine-1-carbodithioate] |  |  | 1.53 ± 0.35% | 7.24 ± 0.15 µM | linear decrease in optical density | 55.26 ± 0.15% | 185 °C
O=C(c1cccc(Cl)c1[N+](=O)[O-])N1CCN(Cc2ccc(F)cc2)CC1 [Compound 2e] | 0.18 µM |  |  |  |  |  | 
Cc1ccc(S(=O)(=O)N2CCN(C(=S)SCC(=O)Nc3ccccc3)CC2)cc1 [Compound 4a, 2-Oxo-2-(phenylamino)ethyl 4-tosylpiperazine-1-carbodithioate] |  |  | 0.55 ± 0.03% | 34.8 ± 0.99 µM | linear decrease in optical density | 62.3 ± 0.41% | 
Cc1ccc(S(=O)(=O)N2CCN(C(=S)SCC(=O)Nc3ccc(C)c(C)c3)CC2)cc1 [Compound 4j, 2-((3,4-Dimethylphenyl)amino)-2-oxoethyl 4-tosylpiperazine-1-carbodithioate] |  |  | 2.56 ± 0.3% | 11.11 ± 0.1 µM | linear decrease in optical density | 56.6 ± 0.23% | 
COc1cccc(/C=C/C(=O)N2CCN(c3ccc(F)c(Cl)c3)CC2)c1Cl [Compound 2h] | 0.12 µM |  |  |  |  |  | 
Cc1ccc(S(=O)(=O)N2CCN(C(=S)SCC(=O)Nc3ccccc3Cl)CC2)cc1 [Compound 4b, 2-((2-Chlorophenyl)amino)-2-oxoethyl 4-tosylpiperazine-1-carbodithioate] |  |  | 0.29 ± 0.01% | 8.01 ± 0.11 µM | highest optical density | 54.43 ± 0.23% | 180 °C
Cc1ccc(S(=O)(=O)N2CCN(C(=S)SCC(=O)Nc3ccc(F)cc3)CC2)cc1 [Compound 4f, 2-((4-Fluorophenyl)amino)-2-oxoethyl 4-tosylpiperazine-1-carbodithioate] |  |  | 4.53 ± 0.35% | 10.3 ± 0.26 µM |  | 56.53 ± 0.55% | 
